# Assay results published in article PMC8221234 (Chemical biology & drug design, 2009).
# Key:
# [1] = tested on: eIF2α phosphorylation in NIH3T3 cells; assay: UV-induced eIF2α phosphorylation in NIH3T3 cells; format: cell-based; details: compared with MEFs, data not shown
# [2] = tested on: eIF2α phosphorylation in NIH3T3 cells; details: cited from earlier work
smiles,measurement,setting,value
Oc1c2ccccc2c2c3c(cccc13)N=N2 [SP600125],Effect on UV-induced eIF2α phosphorylation in NIH3T3 cells (qualitative),[1],does not prevent eIF2α phosphorylation
same,Effect on eIF2α phosphorylation following UV irradiation (qualitative),[2],did not prevent the phosphorylation of eIF2α
